Experimental data published in patent US11540516B2, “M-diamide compound and preparation method therefor and use thereof” (priority 2018, dated 2023).
Read-outs that look alike come from different tables or passages of the source.

What was measured:
Chilo suppressalis = assay: Indoor bioactivity test against Chilo suppressalis (rice stem dip); format: in vivo
Method: The leaf dip method was used to assay the insecticidal activity of compounds to strains of Chilo suppressalis. The rice was cultivated in a plastic pot with a diameter of 9 cm and a height of 10 cm. When the rice grew about 25 cm, the aerial part of robust and consistent rice seedlings were selectively cut. Their leaves were removed and their stems of about 8 cm were kept for use. Pour the solution prepared with compound of this invention into the Petri dish (about 40 mL) and immerse the rice stems into the solution for 10 seconds. Take rice stems out and dry them in a cool environment. Put a wet cotton ball at the bottom of finger-like glass tube and 5 rice stems in each tube. Put 10 of 3rd-instar larvae of Chilo suppressa into each tube, which was repeated by 3 times. Seal the tubes with black cotton cloth and tighten them with rubber band. The tubes were placed in a illumination incubator at 28° C. and incubated in the dark. The number of alive Chilo suppressalis and the total number were investigated 3 days after treatment. The mortality was calculated.
According to the above method, Compound 23 and KC2 were selected and parallelly tested against Chilo suppressalis.

[1] = system: Spodoptera exigua Hiibner; assay: Indoor bioactivity test against Spodoptera exigua Hiibner (leaf dip); format: in vivo; details: foliar, 3rd day after treatment
Method: (§1) The leaf dip method was used to assay the insecticidal activity of compounds to strains of Spodoptera exigua Hiibner. Dip the leaf disc into the solution prepared with compound of this invention for 10 seconds, and dry them in a cool environment. Then place them in Petri dish with 4 discs per dish. Put the filter paper into the Petri dish to moisturize it. Put 10 of Spodoptera exigua Hiibners into each dish, which was repeated by 3 times. The dishes were placed in an illumination incubator and incubated at 25° C. with 14 hL: 10 hD illumination. The number of Spodoptera exigua Hiibner death was investigated on the 1st, 2nd and 3rd day after treatment, and the mortality was calculated.

Plutella xylostella = assay: Indoor bioactivity test against Plutella xylostella (leaf dip); format: in vivo; details: foliar; for mortality at 0.4 ppm / mortality at 1 ppm: 3rd day after treatment
Method: as §1, with “Plutella xylostella.” for “Spodoptera exigua Hiibner.”, “Plutella xylostella” for “Spodoptera exigua Hiibners”, “Plutella xylostella” for “Spodoptera exigua Hiibner”
According to the above method, compound 4 and KC1 were selected and parallelly tested against Plutella xylostella to compare their insecticidal activity.

Spodoptera litura = assay: Indoor bioactivity test against Spodoptera litura (leaf dip); format: in vivo; details: foliar
Method: as §1, with “litura.” for “exigua Hiibner.”, “litura” for “exigua Hiibners”, “litura” for “exigua Hiibner”
According to the above method, compound 4, 23 and KC1 were selected and parallelly tested against Spodoptera litura to compare the insecticidal activity.

Mythimna separata = assay: Indoor bioactivity test against Mythimna separata (leaf dip); format: in vivo; details: foliar, 3rd day after treatment
Text: The leaf dip method was used to assay the insecticidal activity of compounds to strains of Mythimna sepatata. Cut above ground part of fresh maize seedlings, about 10 cm. Dip the maize seedlings into the solution prepared with compound of this invention for 10 seconds and dry them in a cool environment. Then cut the dry maize seedlings into 3˜5 cm leaf sections and put 3 leaf sections into each petri dish. Put ten of 4th-instar larvae of Mythimna separatas into each dish, which was repeated by 3 times. Then the dishes were placed in an illumination incubator and incubated at 25° C. in the dark. Symptoms were investigated on the 1st, 2nd and 3rd day after treatment, and the mortality was calculated.

soybean thrips = assay: Biological activity on soybean thrips in greenhouse (foliar spray); format: in vivo; details: for mortality at 10 ppm / mortality at 50 ppm: Thrips, foliar; for No. of thrips 1 d / No. of thrips 6 d: foliar spray, 5% SL
Method: Test system: naturally occurring thrips population on soybeans planted in greenhouse. The basic number of active thripses were more than 100 thripses per trifoliate leaf. Under the same conditions, the sensitivity of the thrips population to Spinetoram (dose: 50 mg/L) is 96.55% mortality on the 6th day after treatment.
The size of the plot: 10 m^2, no repetition.
Test formulation: each compound was made into 5% SL (compound 5%+emulsifier 5%+solvent to make up 100%).
(1) Spraying time: both adult and larva thripses were in the active period. The number of spray: 1 time.
(2) Standard for water usage: when dose was in mg/kg, the upper leaves were wet and water began to drop therefrom.
(3) Survey standard: count three single leaves as one leaf. Three leaves were randomly selected and investigated for the number of adult and larva thripses on them.
[…] 2 surveys were conducted.

[2] = 3rd day after treatment, read-out: mortality of Chilo suppressalis
[3] = 3rd day after treatment, read-out: mortality of Spodoptera litura
[4] = 24 h, 1 d, read-out: Mortality (%) 1 d
[5] = 48 h, 2 d, read-out: Mortality (%) 2 d
[6] = 72 h, 3 d, read-out: Mortality (%) 3 d
[7] = 24 h, read-out: Mortality % 1 d
[8] = 144 h, read-out: Mortality % 6 d

Question: Which melting point does the source give for `CC(C1CC1)N(C(=O)c1ccc(S(C)(=O)=O)cc1)c1cccc(C(=O)Nc2c(Br)cc(C(F)(C(F)(F)F)C(F)(F)F)cc2C(F)(F)F)c1F` (stereo not shown) [Compound 77, N-(2-bromo-4-(perfluoropropan-2-yl)-6-(trifluoromethyl)phenyl)-3-(N-(1-cyclopropylethyl)-4-(methylsulfonyl)benzamido)-2-fluorobenzamide] here?
Answer: 76 to 78.8 °C

Question: What does the source list for `N#Cc1ccc(C(=O)N(CC2CC2)c2cccc(C(=O)Nc3c(Br)cc(C(F)(C(F)(F)F)C(F)(F)F)cc3C(F)(F)F)c2F)cc1` [Compound 23, N-(2-bromo-4-(perfluoropropan-2-yl)-6-(trifluoromethyl)phenyl)-3-(4-cyano-N-(cyclopropylmethyl)benzamido)-2-fluorobenzamide]?
Answer: mortality at 5 ppm (Chilo suppressalis; [2]): ≥ 90%; mortality at 0.4 ppm (Chilo suppressalis; 72 h, 0.4 ppm, 3d): 53.3%; mortality at 1 ppm (Chilo suppressalis; 72 h, 1 ppm, 3d): 93.3%; mortality at 2 ppm (Chilo suppressalis; 72 h, 2 ppm, 3d): 100%; mortality at 5 ppm (Chilo suppressalis; 72 h, 3d, read-out: Mortality (%, 3d) 5 ppm): 100%; mortality at 1 ppm [1]: 90%; mortality at 0.4 ppm (Plutella xylostella): ≥ 90%; mortality at 0.4 ppm (Spodoptera litura; [3]): ≥ 90%; mortality at 0.4 ppm (Spodoptera litura; [4]): 40%; mortality at 1 ppm (Spodoptera litura; [4]): 93.3%; mortality at 0.4 ppm (Spodoptera litura; [5]): 46.7%; mortality at 1 ppm (Spodoptera litura; [5]): 100%; mortality at 0.4 ppm (Spodoptera litura; [6]): 60%; mortality at 1 ppm (Spodoptera litura; [6]): 100%; mortality at 1 ppm (Mythimna separata): ≥ 90%

Question: Which mortality at 1 ppm [1] does the source give for `CS(=O)(=O)c1ccc(C(=O)N(CC2CC2)c2cccc(C(=O)Nc3c(Br)cc(C(F)(C(F)(F)F)C(F)(F)F)cc3C(F)(F)F)c2F)cc1` [Compound 57, N-(2-bromo-4-(perfluoropropan-2-yl)-6-(trifluoromethyl)phenyl)-3-(N-(cyclopropylmethyl)-4-(methylsulfonyl)benzamido)-2-fluorobenzamide] here?
Answer: 90%

Question: What about the mortality at 1 ppm (Plutella xylostella) of the same molecule?
Answer: ≥ 90%

Question: And the mortality at 10 ppm (Spodoptera litura; 3rd day after treatment)?
Answer: ≥ 90%

Question: What about the mortality at 1 ppm (Mythimna separata) of the same molecule?
Answer: ≥ 90%

Question: For `COC(c1cc(Br)c(NC(=O)c2cccc(N(CC3CC3)C(=O)c3ccc(Cl)cc3)c2F)c(C(F)(F)F)c1)(C(F)(F)F)C(F)(F)F` [Compound 43, N-(2-bromo-4-(1,1,1,3,3,3-hexafluoro-2-methoxypropan-2-yl)-6-(trifluoromethyl)phenyl)-3-(4-chloro-N-(cyclopropylmethyl)benzamido)-2-fluorobenzamide], which melting point is on record?
Answer: 139.3 to 140.2 °C

Question: Which results are given for `O=C(Nc1c(Br)cc(C(F)(C(F)(F)F)C(F)(F)F)cc1C(F)(F)F)c1cccc(N(CC2CC2)C(=O)c2ccc(C(F)(F)F)cc2)c1F` [Compound 37, N-(2-bromo-4-(perfluoropropan-2-yl)-6-(trifluoromethyl)phenyl)-3-(N-(cyclopropylmethyl)-4-(trifluoromethyl)benzamido)-2-fluorobenzamide]?
Answer: mortality at 5 ppm (Chilo suppressalis; [2]): ≥ 90%; mortality at 1 ppm [1]: 90%; mortality at 1 ppm (Plutella xylostella): ≥ 90%; mortality at 0.4 ppm (Spodoptera litura; [3]): ≥ 90%; mortality at 1 ppm (Mythimna separata): ≥ 90%

Question: Which melting point does the source give for `COC(c1cc(Br)c(NC(=O)c2cccc(N(CC3CC3)C(=O)c3ccc(C#N)cc3)c2F)c(C(F)(F)F)c1)(C(F)(F)F)C(F)(F)F` [Compound 24, N-(2-bromo-4-(1,1,1,3,3,3-hexafluoro-2-methoxypropan-2-yl)-6-(trifluoromethyl)phenyl)-3-(4-cyano-N-(cyclopropylmethyl)benzamido)-2-fluorobenzamide] here?
Answer: 152.3 to 153.5 °C

Question: Which results are given for `O=C(Nc1c(Br)cc(C(F)(C(F)(F)F)C(F)(F)F)cc1C(F)(F)F)c1cccc(N(CC2CC2)C(=O)c2ccc(Cl)cc2)c1F` [Compound 41, N-(2-bromo-4-(perfluoropropan-2-yl)-6-(trifluoromethyl)phenyl)-3-(4-chloro-N-(cyclopropylmethyl)benzamido)-2-fluorobenzamide]?
Answer: mortality at 5 ppm (Chilo suppressalis; [2]): ≥ 90%; mortality at 1 ppm [1]: 90%; mortality at 0.4 ppm (Plutella xylostella): ≥ 90%; mortality at 0.4 ppm (Spodoptera litura; [3]): ≥ 90%; mortality at 1 ppm (Mythimna separata): ≥ 90%

Question: With `N#Cc1ccc(C(=O)N(c2cccc(C(=O)Nc3c(Br)cc(C(F)(C(F)(F)F)C(F)(F)F)cc3C(F)(F)F)c2F)C(C2CC2)C2CC2)cc1` [Compound 32, N-(2-bromo-4-(perfluoropropan-2-yl)-6-(trifluoromethyl)phenyl)-3-(4-cyano-N-(dicyclopropylmethyl)benzamido)-2-fluorobenzamide] as the molecule, how does the melting point read?
Answer: 73.5 to 76.1 °C

Question: With `O=C(Nc1c(Br)cc(C(F)(C(F)(F)F)C(F)(F)F)cc1C(F)(F)F)c1cccc(N(CC2CC2)C(=O)c2ccc(F)cc2)c1F` [Compound 62, N-(2-bromo-4-(perfluoropropan-2-yl)-6-(trifluoromethyl)phenyl)-3-(N-(cyclopropylmethyl)-4-fluorobenzamido)-2-fluorobenzamide] as the molecule, how does the mortality at 5 ppm (Chilo suppressalis; [2]) read?
Answer: ≥ 90%

Question: What about the mortality at 1 ppm [1] of the same molecule?
Answer: 90%

Question: And the mortality at 0.4 ppm (Plutella xylostella)?
Answer: ≥ 90%

Question: And the mortality at 0.4 ppm (Spodoptera litura; [3])?
Answer: ≥ 90%

Question: And the mortality at 1 ppm (Mythimna separata)?
Answer: ≥ 90%

Question: For `O=C(Nc1c(Br)cc(C(F)(C(F)(F)F)C(F)(F)F)cc1C(F)(F)F)c1cccc(N(CC2CC2)C(=O)c2ccccc2)c1F` [Compound 4, N-(2-bromo-4-(perfluoropropan-2-yl)-6-(trifluoromethyl)phenyl)-3-(N-(cyclopropylmethyl)benzamido)-2-fluorobenzamide], which mortality at 5 ppm (Chilo suppressalis; [2]) is on record?
Answer: ≥ 90%

Question: And the mortality at 1 ppm [1]?
Answer: 90%

Question: And the mortality at 0.4 ppm (Plutella xylostella)?
Answer: ≥ 90%

Question: And the mortality at 0.04 ppm (Plutella xylostella; [4])?
Answer: 30%

Question: What about the mortality at 0.04 ppm (Plutella xylostella; [5]) of the same molecule?
Answer: 80%

Question: And the mortality at 0.04 ppm (Plutella xylostella; [6])?
Answer: 100%

Question: What about the mortality at 10 ppm (soybean thrips; [7]) of the same molecule?
Answer: 92.4%

Question: What about the mortality at 50 ppm (soybean thrips; [7]) of the same molecule?
Answer: 97.7%

Question: What about the mortality at 10 ppm (soybean thrips; [8]) of the same molecule?
Answer: 98.3%

Question: And the mortality at 50 ppm (soybean thrips; [8])?
Answer: 94.8%

Question: What about the “No. of thrips 1 d” value (soybean thrips; dose 10 ppm) of the same molecule?
Answer: 20

Question: What about the “No. of thrips 6 d” value (soybean thrips; dose 10 ppm) of the same molecule?
Answer: 2

Question: What about the “No. of thrips 1 d” value (soybean thrips; dose 50 ppm) of the same molecule?
Answer: 6

Question: And the “No. of thrips 6 d” value (soybean thrips; dose 50 ppm)?
Answer: 6

Question: And the mortality at 10 ppm (Spodoptera litura; 3rd day after treatment)?
Answer: ≥ 90%

Question: And the mortality at 0.4 ppm (Spodoptera litura; [4])?
Answer: 20%

Question: And the mortality at 1 ppm (Spodoptera litura; [4])?
Answer: 73.3%

Question: And the mortality at 0.4 ppm (Spodoptera litura; [5])?
Answer: 26.7%

Question: What about the mortality at 1 ppm (Spodoptera litura; [5]) of the same molecule?
Answer: 73.3%

Question: And the mortality at 0.4 ppm (Spodoptera litura; [6])?
Answer: 26.7%

Question: What about the mortality at 1 ppm (Spodoptera litura; [6]) of the same molecule?
Answer: 73.3%

Question: And the mortality at 1 ppm (Mythimna separata)?
Answer: ≥ 90%

Question: For `O=C(Nc1c(Br)cc(C(F)(C(F)(F)F)C(F)(F)F)cc1C(F)(F)F)c1cccc(N(CC2CC2)C(=O)c2ccc(OC(F)(F)F)cc2)c1F` [Compound 60, N-(2-bromo-4-(perfluoropropan-2-yl)-6-(trifluoromethyl)phenyl)-3-(N-(cyclopropylmethyl)-4-(trifluoromethoxy)benzamido)-2-fluorobenzamide], which mortality at 10 ppm ([1]; 10 ppm) is on record?
Answer: ≥ 90%

Question: What about the mortality at 1 ppm (Plutella xylostella) of the same molecule?
Answer: ≥ 90%

Question: What about the mortality at 0.4 ppm (Spodoptera litura; [3]) of the same molecule?
Answer: ≥ 90%

Question: And the mortality at 1 ppm (Mythimna separata)?
Answer: ≥ 90%
